From patent US6825230B2, “Spiro and dispiro 1,2,4-trixolane antimalarials” (Medicines for Malaria Venture MMV, priority 2002, dated 2004)

Test system: ANKA strain of P. berghei
Assay: Single dose STI in vivo screen in infected mice
Parameters: species or system Plasmodium berghei
Conditions: for Survival (days) 10 mg/kg po: single 10 mg/kg po in 3% ethanol and 7% Tween 80; for Survival (days) 10 mg/kg po / Survival (days) 10 mg/kg SSV po / Survival (days) 10 mg/kg sc: untreated 6-7 days; for Activity (%) 10 mg/kg po: single 10 mg/kg po in 3% ethanol and 7% Tween 80 on day 1 post-infection; for Survival (days) 10 mg/kg SSV po: single 10 mg/kg po in SSV; for Survival (days) 10 mg/kg sc: single 10 mg/kg sc in 3% ethanol and 7% Tween 80; for Activity (%) 10 mg/kg sc: single 10 mg/kg sc in 3% ethanol and 7% Tween 80 on day 1 post-infection; for Survival (days) 3 mg/kg SSV po / Activity (%) 3 mg/kg SSV po: single 3 mg/kg po in SSV
Method: In the single dose STI in vivo screen, Moro SPF or NMRI mice infected with the ANKA strain of P. berghei (groups of three mice) were treated on day one post-infection with trioxolanes dissolved or suspended in 3% ethanol and 7% Tween 80. […] SSV consists of 0.5% w/v CMC, 0.5% v/v benzyl alcohol, 0.4% v/v Tween 80, and 0.9% w/v sodium chloride in water. Antimalarial activity was measured by percent reduction in parasitemia on day three post-infection and survival times compared to an untreated control group. Survival to day 30 post-infection is considered to be a cure. […] Other factors influencing antimalarial activity include the stability of carbon radicals formed by β-scission subsequent to the initial electron transfer to the peroxide bond and the influence of steric effects remote from the peroxide bond on the interactions between carbon radicals and potential drug targets.
Moro NMRI male mice (Fu Albino specific pathogen free) weighing 18±2 g were infected intravenously (i.v.) with 2×10^7 P. berghei ANKA strain-infected erythrocytes from donor mice on day 0 of the experiment. From donor mice with circa 30% parasitemia, heparinized blood was taken and diluted in physiological saline to 10^8 parasitized erythrocytes per ml. An aliquot (0.2 ml) of this suspension was injected i.v. into experimental and control groups of mice. […] Throughout the experiments, mice were kept in groups of three or five animals in Makrolon type II cages in an air-conditioned animal room at 22 to 23° C.
They were administered per os (p.o.) in a total volume of 0.01 ml per gram of mouse. The activity of the compound was determined by a variety of methods outlined in subsequent sections. Survival time was also recorded, and survival to day 30 post-infection was considered to be a cure.

[1] = percent reduction in parasitemia on day 3
[2] = single 10 mg/kg po in standard suspending vehicle (SSV) on day 1 post-infection, percent reduction in parasitemia on day 3

Compound | Survival (days) 10 mg/kg po [days] | Activity (%) 10 mg/kg po [1] [%] | Survival (days) 10 mg/kg SSV po | Activity (%) 10 mg/kg SSV po [2] | Survival (days) 10 mg/kg sc [days] | Activity (%) 10 mg/kg sc [1] [%] | Survival (days) 3 mg/kg SSV po | Activity (%) 3 mg/kg SSV po [1] [%] | Activity (%) 10 mg/kg SSV po (po, 10 mg/kg)
O=C(c1ccncc1)N1CCC2(CC1)OOC1(O2)C2CC3CC(C2)CC1C3 (centres unmarked) [OZ100, Adamantane-2-spiro-3′-8′-(4′-pyridinylcarbonyl)-1′,2′,4′-trioxa-8′-azaspiro[4.5]decane] | 6.7 | 61 | 6.3 days | 36% | 7.0 | 80 | – | – | –
O=C(COc1ccc(Cl)cc1)N1CCC2(CC1)OOC1(O2)C2CC3CC(C2)CC1C3 (centres unmarked) [OZ101, Adamantane-2-spiro-3′-8′-(4′-chlorophenoxyacetyl)-1′,2′,4′-trioxa-8′-azaspiro[4.5]decane] | 6.3 | 44 | 5.3 days | 0% | 13 | 99.97 | – | – | –
O=C(Nc1ccccc1)N1CCC2(CC1)OOC1(O2)C2CC3CC(C2)CC1C3 (centres unmarked) [OZ102, Adamantane-2-spiro-3′-8′-(phenylaminocarbonyl)-1′,2′,4′-trioxa-8′-azaspiro[4.5]decane] | 7.0 | 92 | 6.7 days | 73% | 19.7 | 99.97 | – | – | –
O=C(Cn1ccnc1)N1CCC2(CC1)OOC1(O2)C2CC3CC(C2)CC1C3 (centres unmarked) [OZ103, Adamantane-2-spiro-3′-8′-(1′H-imidazol-1′-ylacetyl)-1′,2′,4′-trioxa-8′-azaspiro[4.5]decane] | 7.3 | 86 | 6.7 days | 63% | 7.3 | 87 | – | – | –
Cc1ccc(NC(=O)N2CCC3(CC2)OOC2(O3)C3CC4CC(C3)CC2C4)cc1 (centres unmarked) [OZ142] | 6.0 | 0 | 6.3 days | 2% | 14.3 | 99.98 | – | – | –
O=C(N1CCOCC1)N1CCC2(CC1)OOC1(O2)C2CC3CC(C2)CC1C3 (centres unmarked) [OZ188, Adamantane-2-spiro-3′-8′-(4′-morpholinylcarbonyl)-1′,2′,4′-trioxa-8′-azaspiro[4.5]decane] | 8.7 | 93 | 10.0 days | 98% | 9.0 | 99.87 | – | – | –
O=C(Nc1ccc(Cl)cc1)N1CCC2(CC1)OOC1(O2)C2CC3CC(C2)CC1C3 (centres unmarked) [OZ192, Adamantane-2-spiro-3′-8′-[(4′-chlorophenylamino)carbonyl]-1′,2′,4′-trioxa-8′-azaspiro[4.5]decane] | 6.0 | 38 | 7.0 days | 45% | 13.7 | 99.98 | – | – | –
O=C(NC[C@H]1CC[C@]2(CC1)OO[C@]1(O2)C2CC3CC(C2)CC1C3)N1CCOCC1 [OZ272] | – | – | 10.3 days | 98% | – | – | 6.6 days | 49 | –
OC1(Cc2nc3ccccc3s2)CCC2(CC1)OOC1(O2)C2CC3CC(C2)CC1C3 (centres unmarked) [OZ276] | – | – | 7.3/ND days | 17/ND % | – | – | – | – | –
O=C(NC[C@H]1CC[C@]2(CC1)OOC1(O2)C2CC3CC(C2)CC1C3)c1ccccc1O (some centres unmarked) [OZ280] | – | – | 5.7ND days | – | – | – | – | – | 0/ND %
O=C(NC[C@H]1CC[C@]2(CC1)OOC1(O2)C2CC3CC(C2)CC1C3)c1ccc(O)nc1 (some centres unmarked) [OZ282] | – | – | 8.3 days | 98.5% | – | – | 7.2 days | 53 | –
Nc1ncccc1C(=O)NC[C@H]1CC[C@]2(CC1)OOC1(O2)C2CC3CC(C2)CC1C3 (some centres unmarked) [OZ284] | – | – | 9.0 days | 97% | – | – | 7.8 days | 61 | –
NC(=O)c1ccc(NC[C@H]2CC[C@]3(CC2)OOC2(O3)C3CC4CC(C3)CC2C4)cc1 (some centres unmarked) [OZ286] | – | – | 8.7 days | 99.73% | – | – | 7.0 days | 60 | –
CCOC(=O)CNC[C@H]1CC[C@]2(CC1)OO[C@]1(O2)C2CC3CC(C2)CC1C3 [OZ290] | – | – | 9.0 days | 99.64% | – | – | 7.0 days | 95 | –
CCNC(=O)NC[C@H]1CC[C@]2(CC1)OO[C@]1(O2)C2CC3CC(C2)CC1C3 [OZ291] | – | – | 8.0 days | 98% | – | – | 6.8 days | 34 | –
c1cncc(NC[C@H]2CC[C@]3(CC2)OO[C@]2(O3)C3CC4CC(C3)CC2C4)c1 [OZ293] | – | – | 8.8 days | 99.58% | – | – | 7.4 days | 77 | –
NS(=O)(=O)c1ccc(NC[C@H]2CC[C@]3(CC2)OO[C@]2(O3)C3CC4CC(C3)CC2C4)cc1 [OZ298] | – | – | 9.4 days | – | – | – | 9.0 days | 98 | –
O=c1ccn(C[C@H]2CC[C@]3(CC2)OO[C@]2(O3)C3CC4CC(C3)CC2C4)cc1 [OZ302] | – | – | 9.0/9.0 days | – | – | – | 9.0/9.0 days | 88 | –
O=CN1CCN(C[C@H]2CC[C@]3(CC2)OO[C@]2(O3)C3CC4CC(C3)CC2C4)CC1 [OZ303] | – | – | 8.6 days | – | – | – | 7.6 days | 69 | –
O=C(NC[C@H]1CC[C@]2(CC1)OO[C@]1(O2)C2CC3CC(C2)CC1C3)c1ccccn1 [OZ304] | – | – | 8.2 days | 98% | – | – | 8.8 days | 61 | –
NCCNC(=O)C[C@H]1CC[C@]2(CC1)OO[C@]1(O2)C2CC3CC(C2)CC1C3 [OZ305] | – | – | 9.2 days | – | – | – | 9.6 days | 96 | –
CS(=O)(=O)N(CC(N)=O)C[C@H]1CC[C@]2(CC1)OO[C@]1(O2)C2CC3CC(C2)CC1C3 [OZ308] | – | – | 7.8 days | 86% | – | – | 6.6 days | 30 | –
Cn1ccnc1S(=O)(=O)C[C@H]1CC[C@]2(CC1)OO[C@]1(O2)C2CC3CC(C2)CC1C3 [OZ310] | – | – | 7.8 days | 81% | – | – | 8.2 days | 38 | –
NC(=O)C1CCN(C(=O)C[C@H]2CC[C@]3(CC2)OO[C@]2(O3)C3CC4CC(C3)CC2C4)CC1 [OZ311] | – | – | 8.6 days | 80% | – | – | 7.0 days | 40 | –
O=C(C[C@H]1CC[C@]2(CC1)OO[C@]1(O2)C2CC3CC(C2)CC1C3)N1CCN(c2ncccn2)CC1 [OZ314] | – | – | 6.6/6.6 days | 13% | – | – | 6.6/6.6 days | 11 | –
O=C(CNC(=O)c1cccnc1)NC[C@H]1CC[C@]2(CC1)OO[C@]1(O2)C2CC3CC(C2)CC1C3 [OZ316] | – | – | 10.0 days | 69% | – | – | 8.0 days | 7 | –
CCOC(=O)CCNCC1CCC2(CC1)OOC1(O2)C2CC3CC(C2)CC1C3.Cc1ccc(S(=O)(=O)O)cc1 (centres unmarked) [OZ318] | – | – | 12.4 days | 88% | – | – | 7.6 days | 29 | –
NC(=O)c1cn(C[C@H]2CC[C@]3(CC2)OO[C@]2(O3)C3CC4CC(C3)CC2C4)cn1 [OZ320] | – | – | – | – | – | – | – | 92 | –
NC(=O)c1cncn1C[C@H]1CC[C@]2(CC1)OO[C@]1(O2)C2CC3CC(C2)CC1C3 [OZ321] | – | – | 14.0 days | – | – | – | 9.8 days | 64 | –
O=S(=O)(C[C@H]1CC[C@]2(CC1)OO[C@]1(O2)C2CC3CC(C2)CC1C3)c1cccc[n+]1[O-] [OZ324] | – | – | 9.4 days | 60% | – | – | 7.4 days | 26 | –
